Test results as given in patent publication US20060210479A1 (Dow Global Technologies Inc., priority 2004, published 2006).

Columns and labels:
[1] = test system: HEK293 cells, normal (non-induced); test: Permeability of chelates to HEK293 cells, fluorescence of fractions; type: cell-based, human; details: HEK293 Normal; 1 mM chelate, 2 hours
Procedure: The human kidney transformed HEK293 cells (obtained from the ATCC) were grown in Eagle's Minimum Essential Medium (EMEM) supplemented with 10% (v/v) heat-inactivated fetal bovine serum, sodium pyruvate, nonessential amino acids and antibiotics in a humidified 5% CO2 atmosphere at 37° C. Medium and supplements were purchased from Gibco bRL (Grand Island, N.Y.). Etoposide was obtained from Sigma (St. Louis, Mo.) and prepared as 20 mM solution in dimethyl sulfoxide (DMSO). For treatments, etoposide was applied to the HEK293 cultures at 1:1000 dilution (final concentration of 20 μM) after cell became 75% confluent. As a control, cells were fed with medium containing 0.1% DMSO in the absence of etoposide. After treatment with etoposide, cells were incubated in a humidified 5% CO2 at 37° C. for 24 hours. HEK293 cells were collected by removing treatment medium and washed 2 times with 10 mM HEPES buffer. Final cell pellets were resuspended in a small amount of HEPES and stored at 4° C. for further study.
Cells were grown to confluence in T-150 flasks (about 2×10^6 cells). […] After treatment, the chelate or analogue supernatant was discarded and the cells were rinsed three times at room temperature with 10 mM HEPES. Cells were then removed from the flask by manual scraping. Cells were transferred to a 50-mL conical tube and centrifuged (400×g) for 5 minutes and the test material removed. Remaining cells were rinsed twice with cold 10 mM HEPES. Cells were used in cell binding assays.

[2] = test system: cancer cells (LNCaP, Caco-2, T84); test: Chelate permeability and specificity, cancer cells versus normal cells (summary); type: cell-based, human; details: cancer cells
[3] = test system: excised human colorectal tissue; details: 2 mM/5% ethanol aerosol spray, rinsing, UV 320 nm
Procedure: Excised tissue was received from human patients undergoing radical resection of the colon as a result of invasive cancer. Sections of tissue were received within 30 minutes of resection and the chelate solution applied as an aerosol spray followed by sequential aqueous rinsing to remove unbound chelate. The resulting tissue was then visualized under UV irradiation (320 nm) to detect the presence of the chelate (red-shifted emission).

[4] = test system: cancer cell lines (CaCo-2, Du-145, SK-MES, HLaC, C33-A); details: relative to control cells

## CCOP(=O)([O-])CN1CCN(Cc2ccc3cc(C)ccc3n2)CCN(CP(=O)([O-])OCC)CCN(CP(=O)([O-])OCC)CC1.[Eu+3] [Eu-QCTME, Eu(III) N-(6-methyl-2-quinolylmethyl)-N′,N″,N′″-tris(methylenephosphonic acid ethyl ester)-1,4,7,10-tetraazacyclododecane]
[1]
  Fluorescence/mg Membrane: 1799
[2]
  permeability to cell membranes: permeable to cancer cell membranes
[3]
  localization in adjacent normal tissue: no detectable localization
  localization in diseased tissue (adenocarcinoma and pre-malignant neoplasm): found to localize in diseased tissue
[4]
  time of initial burst of cell-bound fluorescence: ≤ 5 min
